pIC50: −log10 of the molar value. The source made the active and inactive calls. No cut-off for these calls is given here.
What was measured:
[1] = target: T1, C-C chemokine receptor type 4 (Homo sapiens) (UniProt P51679); test: Inhibition of CCR4 by Ca(2+) flux assay
T1 sequence (whole entry): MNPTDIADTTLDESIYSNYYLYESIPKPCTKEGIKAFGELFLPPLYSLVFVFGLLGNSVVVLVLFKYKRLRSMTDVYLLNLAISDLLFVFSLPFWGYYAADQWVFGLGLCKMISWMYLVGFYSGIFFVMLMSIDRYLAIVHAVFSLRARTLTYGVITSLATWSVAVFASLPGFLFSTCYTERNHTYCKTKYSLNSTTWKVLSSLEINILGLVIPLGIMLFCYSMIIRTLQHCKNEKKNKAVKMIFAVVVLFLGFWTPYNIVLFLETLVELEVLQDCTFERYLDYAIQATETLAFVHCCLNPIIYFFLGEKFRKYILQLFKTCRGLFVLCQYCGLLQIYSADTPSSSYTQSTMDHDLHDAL

[2] = Half life in rat at 10 umol/kg, iv; assay type: ADME, organism-based; conditions: in vivo, 10 umol/kg
[3] = AUC (0 to infinity) in dog; assay type: ADME, organism-based, Canis lupus familiaris; set-up: time infinity; concentration or dose not given beside the values; conditions: plasma
[4] = target: T2, Cytochrome P450 1A2 (Homo sapiens, UniProt P05177); test: Inhibition of CYP1A2; assay type: ADME
T2 sequence (P05177 whole entry): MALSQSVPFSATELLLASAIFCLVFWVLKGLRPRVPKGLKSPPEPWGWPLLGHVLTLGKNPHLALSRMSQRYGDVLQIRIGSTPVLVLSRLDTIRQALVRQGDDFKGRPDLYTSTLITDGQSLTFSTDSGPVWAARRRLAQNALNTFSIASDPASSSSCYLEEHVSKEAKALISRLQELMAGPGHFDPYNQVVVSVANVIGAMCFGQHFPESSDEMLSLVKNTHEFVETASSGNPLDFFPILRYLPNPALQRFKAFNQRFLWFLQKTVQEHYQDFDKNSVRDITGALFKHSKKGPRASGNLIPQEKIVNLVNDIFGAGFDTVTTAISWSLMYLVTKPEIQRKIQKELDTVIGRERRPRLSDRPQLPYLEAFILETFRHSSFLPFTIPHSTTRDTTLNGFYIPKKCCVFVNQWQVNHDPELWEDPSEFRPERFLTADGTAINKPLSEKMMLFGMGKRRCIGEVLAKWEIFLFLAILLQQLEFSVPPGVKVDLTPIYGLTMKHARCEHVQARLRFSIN

[5] = target: Voltage-gated inwardly rectifying potassium channel KCNH2 (Homo sapiens, UniProt Q12809); test: Inhibition of human ERG
Chain of Voltage-gated inwardly rectifying potassium channel KCNH2 (Q12809 whole entry): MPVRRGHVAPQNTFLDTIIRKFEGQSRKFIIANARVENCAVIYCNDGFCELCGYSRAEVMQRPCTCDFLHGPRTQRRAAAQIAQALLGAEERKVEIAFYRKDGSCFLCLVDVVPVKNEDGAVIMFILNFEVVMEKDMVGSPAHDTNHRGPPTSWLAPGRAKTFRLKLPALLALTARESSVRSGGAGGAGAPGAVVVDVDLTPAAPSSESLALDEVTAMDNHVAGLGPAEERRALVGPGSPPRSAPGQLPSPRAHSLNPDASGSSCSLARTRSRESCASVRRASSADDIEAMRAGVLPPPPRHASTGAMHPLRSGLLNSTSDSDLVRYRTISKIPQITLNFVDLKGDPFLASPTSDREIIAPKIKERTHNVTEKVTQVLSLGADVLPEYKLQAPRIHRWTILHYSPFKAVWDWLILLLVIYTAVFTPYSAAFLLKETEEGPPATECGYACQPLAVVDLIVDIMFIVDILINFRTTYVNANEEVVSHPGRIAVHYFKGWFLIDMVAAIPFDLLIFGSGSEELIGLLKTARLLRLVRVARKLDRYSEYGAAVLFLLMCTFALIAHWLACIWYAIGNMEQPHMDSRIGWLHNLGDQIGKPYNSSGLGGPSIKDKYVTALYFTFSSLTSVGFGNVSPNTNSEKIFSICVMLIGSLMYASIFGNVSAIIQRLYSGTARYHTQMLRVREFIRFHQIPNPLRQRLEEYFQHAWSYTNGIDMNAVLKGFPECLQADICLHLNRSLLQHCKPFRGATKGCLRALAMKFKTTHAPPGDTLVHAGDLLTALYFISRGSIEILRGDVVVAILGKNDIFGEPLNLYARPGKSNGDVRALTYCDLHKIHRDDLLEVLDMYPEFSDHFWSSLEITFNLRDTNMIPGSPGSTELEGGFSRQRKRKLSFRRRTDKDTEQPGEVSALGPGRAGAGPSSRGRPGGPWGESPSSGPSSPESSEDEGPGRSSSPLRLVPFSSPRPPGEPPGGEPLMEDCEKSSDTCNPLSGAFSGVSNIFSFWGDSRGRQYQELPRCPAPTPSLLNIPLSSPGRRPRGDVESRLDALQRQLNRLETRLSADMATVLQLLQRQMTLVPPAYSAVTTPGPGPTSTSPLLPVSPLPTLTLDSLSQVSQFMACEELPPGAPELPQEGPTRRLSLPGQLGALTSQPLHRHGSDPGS

[6] = AUC (0 to infinity) in rat; assay type: ADME, organism-based; set-up: time infinity; concentration or dose not given beside the values; conditions: plasma
[7] = Cmax in dog; assay type: ADME, organism-based, Canis lupus familiaris; conditions: in vivo
[8] = target: C-C chemokine receptor type 2 (Homo sapiens) (UniProt P41597); test: Inhibition of CCR2B by Ca(2+) flux assay
Chain of C-C chemokine receptor type 2 (Homo sapiens) (P41597 whole entry, looked up): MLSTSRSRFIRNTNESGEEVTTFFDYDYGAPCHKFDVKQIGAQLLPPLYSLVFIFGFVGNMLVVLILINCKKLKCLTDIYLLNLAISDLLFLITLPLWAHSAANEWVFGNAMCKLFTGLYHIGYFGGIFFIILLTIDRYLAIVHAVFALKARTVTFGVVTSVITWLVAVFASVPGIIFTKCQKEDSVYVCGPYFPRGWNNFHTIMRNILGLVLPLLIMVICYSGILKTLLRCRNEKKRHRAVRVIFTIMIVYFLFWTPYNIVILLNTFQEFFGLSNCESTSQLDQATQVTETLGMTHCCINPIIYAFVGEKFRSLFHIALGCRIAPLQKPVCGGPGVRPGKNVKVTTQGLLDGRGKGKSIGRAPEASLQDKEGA

[9] = target: T3, C-X-C chemokine receptor type 2 (Homo sapiens) (UniProt P25025); test: Inhibition of CXCR2 by Ca(2+) flux assay
T3 sequence (whole entry): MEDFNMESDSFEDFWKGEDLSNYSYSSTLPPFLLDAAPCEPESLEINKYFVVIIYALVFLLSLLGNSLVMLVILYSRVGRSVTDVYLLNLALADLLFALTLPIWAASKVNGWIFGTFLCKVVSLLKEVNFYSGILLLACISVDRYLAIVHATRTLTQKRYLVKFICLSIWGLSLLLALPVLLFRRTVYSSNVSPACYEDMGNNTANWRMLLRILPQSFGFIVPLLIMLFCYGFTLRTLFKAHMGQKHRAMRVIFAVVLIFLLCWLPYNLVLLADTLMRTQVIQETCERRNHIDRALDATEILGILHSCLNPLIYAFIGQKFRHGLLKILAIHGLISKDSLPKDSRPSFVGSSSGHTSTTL

[10] = Clearance in dog at 5 umol/kg, iv; assay type: ADME, organism-based, Canis lupus familiaris; conditions: in vivo
[11] = target: Cytochrome P450 2C9 (Homo sapiens, UniProt P11712); test: Inhibition of CYP2C9; assay type: ADME
Chain of Cytochrome P450 2C9 (P11712 whole entry): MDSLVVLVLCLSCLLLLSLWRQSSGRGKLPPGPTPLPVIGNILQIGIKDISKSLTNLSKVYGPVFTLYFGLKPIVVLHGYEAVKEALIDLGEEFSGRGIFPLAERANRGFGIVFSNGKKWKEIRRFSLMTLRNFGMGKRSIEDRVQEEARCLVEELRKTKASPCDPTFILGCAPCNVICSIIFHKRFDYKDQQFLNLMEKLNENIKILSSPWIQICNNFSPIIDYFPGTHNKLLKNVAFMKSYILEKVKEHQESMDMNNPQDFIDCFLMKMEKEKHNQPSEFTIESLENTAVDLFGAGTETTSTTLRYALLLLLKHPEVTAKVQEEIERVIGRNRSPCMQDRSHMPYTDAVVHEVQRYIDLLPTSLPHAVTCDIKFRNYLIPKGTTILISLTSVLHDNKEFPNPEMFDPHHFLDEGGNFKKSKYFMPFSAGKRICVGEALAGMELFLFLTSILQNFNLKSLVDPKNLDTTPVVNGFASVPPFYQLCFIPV

[12] = (§1) Plasma protein binding in human plasma at 1 uM after 5 hrs by LC-MS/MS analysis; assay type: ADME, cell-free; conditions: read-out: PPB (converted)
[13] = Volume of distribution at steady state in dog at 5 umol/kg, iv; assay type: ADME, organism-based, Canis lupus familiaris; conditions: in vivo, read-out: Vdss
[14] = Half life in dog at 5 umol/kg, iv; assay type: ADME, organism-based, Canis lupus familiaris; conditions: in vivo
[15] = Oral bioavailability in dog; assay type: ADME, organism-based, Canis lupus familiaris; conditions: in vivo
[16] = target: T4, Muscarinic acetylcholine receptor M2 (Homo sapiens) (UniProt P08172); test: Inhibition of muscarinic M2 receptor
T4 sequence (whole entry): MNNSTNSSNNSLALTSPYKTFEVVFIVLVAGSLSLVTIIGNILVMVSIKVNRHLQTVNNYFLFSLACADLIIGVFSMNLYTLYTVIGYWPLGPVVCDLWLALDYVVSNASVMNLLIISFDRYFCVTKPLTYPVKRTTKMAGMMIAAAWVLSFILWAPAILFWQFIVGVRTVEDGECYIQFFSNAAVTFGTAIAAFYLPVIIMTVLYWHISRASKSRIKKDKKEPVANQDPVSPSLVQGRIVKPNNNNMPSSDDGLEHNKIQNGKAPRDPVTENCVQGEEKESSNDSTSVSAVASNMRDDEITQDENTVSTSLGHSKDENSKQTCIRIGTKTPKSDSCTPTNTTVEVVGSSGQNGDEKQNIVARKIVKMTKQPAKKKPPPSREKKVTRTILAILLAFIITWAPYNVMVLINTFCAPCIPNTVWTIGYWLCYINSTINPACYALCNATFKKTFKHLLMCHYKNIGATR

[17] = target: T5, C-C chemokine receptor type 1 (Homo sapiens) (UniProt P32246); test: Inhibition of CCR1 by Ca(2+) flux assay
T5 sequence (whole entry): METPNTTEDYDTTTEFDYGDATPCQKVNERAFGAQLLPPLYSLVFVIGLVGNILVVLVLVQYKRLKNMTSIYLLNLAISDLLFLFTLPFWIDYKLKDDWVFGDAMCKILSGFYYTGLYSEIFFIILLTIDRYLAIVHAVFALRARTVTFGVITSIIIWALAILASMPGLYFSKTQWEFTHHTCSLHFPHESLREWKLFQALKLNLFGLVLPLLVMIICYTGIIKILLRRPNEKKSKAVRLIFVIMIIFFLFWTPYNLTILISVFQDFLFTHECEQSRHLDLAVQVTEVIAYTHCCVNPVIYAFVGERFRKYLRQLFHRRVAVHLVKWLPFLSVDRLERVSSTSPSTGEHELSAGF

[18] = Oral bioavailability in rat; assay type: ADME, organism-based; conditions: in vivo
[19] = target: Cytochrome P450 2C19 (Homo sapiens, UniProt P33261); test: Inhibition of CYP2C19; assay type: ADME
Chain of Cytochrome P450 2C19 (P33261 whole entry): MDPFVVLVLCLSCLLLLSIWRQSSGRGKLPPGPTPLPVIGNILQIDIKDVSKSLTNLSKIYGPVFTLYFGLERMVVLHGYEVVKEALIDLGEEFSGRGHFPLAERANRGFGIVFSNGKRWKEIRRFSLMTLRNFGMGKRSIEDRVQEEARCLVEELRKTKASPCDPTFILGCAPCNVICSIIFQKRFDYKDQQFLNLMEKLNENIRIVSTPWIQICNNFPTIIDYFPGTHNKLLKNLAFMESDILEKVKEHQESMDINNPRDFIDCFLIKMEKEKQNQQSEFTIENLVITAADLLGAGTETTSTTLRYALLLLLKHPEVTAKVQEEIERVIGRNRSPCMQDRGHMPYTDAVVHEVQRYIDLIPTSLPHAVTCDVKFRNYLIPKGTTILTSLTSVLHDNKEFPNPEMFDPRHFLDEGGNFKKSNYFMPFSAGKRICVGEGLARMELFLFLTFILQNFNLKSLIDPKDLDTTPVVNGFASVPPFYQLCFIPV

[20] = target: C-X-C chemokine receptor type 4 (Homo sapiens) (UniProt P61073); test: Inhibition of CXCR4 by Ca(2+) flux assay
Chain of C-X-C chemokine receptor type 4 (Homo sapiens) (P61073 whole entry): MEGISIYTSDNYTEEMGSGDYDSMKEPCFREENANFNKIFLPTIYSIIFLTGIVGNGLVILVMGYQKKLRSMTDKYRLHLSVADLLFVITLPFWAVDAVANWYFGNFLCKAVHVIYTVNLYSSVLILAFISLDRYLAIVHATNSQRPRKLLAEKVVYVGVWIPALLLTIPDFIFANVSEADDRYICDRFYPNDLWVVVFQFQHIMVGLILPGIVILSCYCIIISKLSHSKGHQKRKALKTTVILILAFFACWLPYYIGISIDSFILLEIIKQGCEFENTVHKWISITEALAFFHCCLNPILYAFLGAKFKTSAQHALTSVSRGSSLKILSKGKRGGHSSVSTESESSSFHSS

[21] = Clearance in rat at 10 umol/kg, iv; assay type: ADME, organism-based; conditions: in vivo
[22] = target: Cytochrome P450 3A4 (Homo sapiens, UniProt P08684); test: Inhibition of CYP3A4; assay type: ADME
Chain of Cytochrome P450 3A4 (P08684 whole entry): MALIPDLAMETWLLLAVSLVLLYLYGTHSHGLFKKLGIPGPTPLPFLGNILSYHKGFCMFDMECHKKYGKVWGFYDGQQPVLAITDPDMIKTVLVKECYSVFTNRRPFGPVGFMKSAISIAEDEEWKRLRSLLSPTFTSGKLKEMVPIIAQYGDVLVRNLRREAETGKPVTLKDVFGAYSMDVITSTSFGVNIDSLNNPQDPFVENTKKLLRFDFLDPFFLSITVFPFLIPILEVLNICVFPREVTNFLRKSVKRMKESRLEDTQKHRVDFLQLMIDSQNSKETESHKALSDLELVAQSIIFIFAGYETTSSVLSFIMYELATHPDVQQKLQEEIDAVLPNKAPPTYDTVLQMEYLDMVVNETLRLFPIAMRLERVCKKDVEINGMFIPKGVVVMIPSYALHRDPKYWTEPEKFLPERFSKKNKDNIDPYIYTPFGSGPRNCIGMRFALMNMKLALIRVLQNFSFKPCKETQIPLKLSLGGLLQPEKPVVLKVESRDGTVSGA

[23] = Cytotoxic activity against human PBMC assessed as reduction in cell viability; assay type: cell-based
[24] = Cmax in rat; assay type: ADME, organism-based; conditions: in vivo
[25] = Volume of distribution at steady state in rat at 10 umol/kg, iv; assay type: ADME, organism-based; conditions: in vivo, 10 umol/kg, read-out: Vdss
[26] = target: Cytochrome P450 2D6 (Homo sapiens, UniProt P10635); test: Inhibition of CYP2D6; assay type: ADME
Chain of Cytochrome P450 2D6 (P10635 whole entry): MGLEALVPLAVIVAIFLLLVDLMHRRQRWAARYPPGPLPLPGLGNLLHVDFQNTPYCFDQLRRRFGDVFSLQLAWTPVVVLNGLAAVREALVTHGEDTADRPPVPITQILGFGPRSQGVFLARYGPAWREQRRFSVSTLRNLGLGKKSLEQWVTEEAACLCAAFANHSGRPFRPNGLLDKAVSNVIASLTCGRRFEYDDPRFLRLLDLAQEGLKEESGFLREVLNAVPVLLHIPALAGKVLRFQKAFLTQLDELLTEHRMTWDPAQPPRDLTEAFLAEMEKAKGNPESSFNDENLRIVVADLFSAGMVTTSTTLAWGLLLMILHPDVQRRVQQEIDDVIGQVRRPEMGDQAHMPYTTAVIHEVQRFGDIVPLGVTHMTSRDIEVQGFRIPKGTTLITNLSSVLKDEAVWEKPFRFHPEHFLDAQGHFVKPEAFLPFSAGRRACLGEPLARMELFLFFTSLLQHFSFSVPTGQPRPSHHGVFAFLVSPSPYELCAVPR

[27] = target: T6, C-X-C chemokine receptor type 1 (Homo sapiens) (UniProt P25024); test: Inhibition of CXCR1 by Ca(2+) flux assay
T6 sequence (whole entry): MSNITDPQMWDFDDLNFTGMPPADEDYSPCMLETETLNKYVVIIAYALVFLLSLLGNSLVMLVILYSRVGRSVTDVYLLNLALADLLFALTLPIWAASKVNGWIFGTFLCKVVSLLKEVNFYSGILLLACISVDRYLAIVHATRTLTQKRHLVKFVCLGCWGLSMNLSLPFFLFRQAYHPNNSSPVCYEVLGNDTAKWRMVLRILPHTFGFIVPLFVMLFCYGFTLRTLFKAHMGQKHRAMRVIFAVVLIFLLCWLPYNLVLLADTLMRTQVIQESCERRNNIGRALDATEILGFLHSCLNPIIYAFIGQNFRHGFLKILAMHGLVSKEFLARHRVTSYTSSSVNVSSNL

[28] = tested on: Human immunodeficiency virus 1; test: Antiviral activity against R5 tropic Human immunodeficiency virus 1 BAL infected in human PBMC cells assessed as reduction in viral replication by p24 detection based ELISA; assay type: functional, organism-based
[29] = tested on: Plasma; test: as §1; assay type: ADME, cell-free; conditions: 5 h, 1 µM

Structure (SMILES): COc1ccc(N(Cc2cnccc2C)C2CCN([C@H](C)CCNC(=O)c3c(C)cc(Cl)nc3C)CC2)cc1
- inhibition [1]: inactive
- half-life [2]: 10 h
- AUC(0-inf) [3]: 1.33 µM·h
- INH [4]: > 10 µM
- pIC50 [5]: 6.60
- AUC(0-inf) [6]: 22.7 µM·h
- Cmax [7]: 580 nM
- inhibition [8]: inactive
- inhibition [9]: inactive
- clearance [10]: 30 mL/min/kg
- INH [11]: > 10 µM
- fraction unbound at 5 h, 1 µM [12]: 0.08
- Vd [13]: 34.7 L/kg
- half-life [14]: 13.5 h
- bioavailability [15]: 21%
- inhibition [16]: inactive
- inhibition [17]: inactive
- bioavailability [18]: 67%
- INH [19]: > 10 µM
- inhibition [20]: inactive
- clearance [21]: 46.7 mL/min/kg
- INH [22]: > 10 µM
- CC50 [23]: > 36400 nM
- Cmax [24]: 3800 nM
- Vd [25]: 40.5 L/kg
- INH [26]: > 10 µM
- inhibition [27]: inactive
- pIC50 [28]: 8.66

Structure (SMILES): COc1ccc(N(Cc2cnccc2C)C2CCN([C@H](C)CCNC(=O)c3c(C)ncnc3C)CC2)cc1
- PPB [29]: 75%
- CC50 [23]: > 38300 nM
- pIC50 [28]: 5.74

Reference: ChEMBL document CHEMBL1926604, “Design and synthesis of pyridin-2-ylmethylaminopiperidin-1-ylbutyl amide CCR5 antagonists that are potent inhibitors of M-tropic (R5) HIV-1 replication” (Bioorg Med Chem Lett, 2011)
